# From ChEMBL document CHEMBL1145561, “Pyrrolo[1,2-b]pyridazin-2-ones as potent inhibitors of HCV NS5B polymerase” (Bioorg Med Chem Lett, 2008)
# pEC50, pIC50: −log10 of the molar value.
# Test system: Liver microsomes
# Test: (§1) Metabolic stability in human liver microsomes assessed as half life at 5 uM
# Type: ADME, Microsome
# Conditions: microsomes, 5 µM
row,t1/2 [min],Structure (SMILES)
1,45,O=c1c(C2=NS(=O)(=O)c3ccccc3N2)c(O)c2cccn2n1Cc1ccc(F)cc1

# Test system: not listed separately
# Test: as §1
# Type: ADME, Microsome
# Conditions: liver microsomes
row,half-life at 5 µM [min],Structure (SMILES)
1,> 60,CS(=O)(=O)Nc1ccc2c(c1)S(=O)(=O)N=C(c1c(O)c3cccn3n(Cc3ccc(F)c(Cl)c3)c1=O)N2
2,> 60,CC(C)CCn1c(=O)c(C2=NS(=O)(=O)c3cc(NS(C)(=O)=O)ccc3N2)c(O)c2cc(F)cn21
3,49,CN(c1ccc2c(c1)S(=O)(=O)N=C(c1c(O)c3cccn3n(CCC(C)(C)C)c1=O)N2)S(C)(=O)=O
4,> 60,O=c1c(C2=NS(=O)(=O)c3cc(C4CCCS4(=O)=O)ccc3N2)c(O)c2cccn2n1Cc1ccc(F)cc1 (racemic)

# Test system: Hepatitis C virus
# Test: Antiviral activity against HCV 1b in human Huh7/C24 cells after 72 hrs by replicon cell assay
# Type: functional, organism-based, Hepacivirus hominis
# Conditions: genotype 1b, Huh-7, 72 h
row,pEC50,Structure (SMILES)
1,7.66,CS(=O)(=O)Nc1ccc2c(c1)S(=O)(=O)N=C(c1c(O)c3cccn3n(Cc3ccc(F)c(Cl)c3)c1=O)N2
2,4.77,COc1ccc2c(c1)S(=O)(=O)N=C(c1c(O)c3cccn3n(CCC(C)C)c1=O)N2
3,7.72,CC(C)CCn1c(=O)c(C2=NS(=O)(=O)c3cc(NS(C)(=O)=O)ccc3N2)c(O)c2cc(F)cn21
4,6.92,CN(c1ccc2c(c1)S(=O)(=O)N=C(c1c(O)c3cccn3n(CCC(C)(C)C)c1=O)N2)S(C)(=O)=O
5,6.42,O=c1c(C2=NS(=O)(=O)c3cc(C4CCCS4(=O)=O)ccc3N2)c(O)c2cccn2n1Cc1ccc(F)cc1 (racemic)

# Test system: not listed separately
# Test: Apparent permeability from apical to basolateral side in human Caco-2 cells at 10 uM
# Type: ADME, cell-based
# Conditions: not given
row,Structure (SMILES),Papp A→B at 10 µM [×10⁻⁶ cm/s]
1,CC(C)NCC(O)COc1cccc2ccccc12 (stereo unspecified) [PROPRANOLOL],10

# Test system: not listed separately
# Test: Cytotoxicity against human Huh7/C24 cells after 72 hrs
# Type: cell-based, Huh-7
# Conditions: not given
row,Structure (SMILES),CC50 at 72 h [µM]
1,CS(=O)(=O)Nc1ccc2c(c1)S(=O)(=O)N=C(c1c(O)c3cccn3n(Cc3ccc(F)c(Cl)c3)c1=O)N2,> 1
2,COc1ccc2c(c1)S(=O)(=O)N=C(c1c(O)c3cccn3n(CCC(C)C)c1=O)N2,> 100
3,CC(C)CCn1c(=O)c(C2=NS(=O)(=O)c3cc(NS(C)(=O)=O)ccc3N2)c(O)c2cc(F)cn21,> 1
4,CN(c1ccc2c(c1)S(=O)(=O)N=C(c1c(O)c3cccn3n(CCC(C)(C)C)c1=O)N2)S(C)(=O)=O,> 33
5,O=c1c(C2=NS(=O)(=O)c3cc(C4CCCS4(=O)=O)ccc3N2)c(O)c2cccn2n1Cc1ccc(F)cc1 (racemic),> 33

# Test system: Hepatitis C virus
# Test: Inhibition of HCV 1b NS5B RNA polymerase
# Design: species or system Hepatitis C virus subtype 1b
# Conditions: not given
row,Structure (SMILES),pIC50
1,CS(=O)(=O)Nc1ccc2c(c1)S(=O)(=O)N=C(c1c(O)c3cccn3n(Cc3ccc(F)c(Cl)c3)c1=O)N2,7.60
2,COc1ccc2c(c1)S(=O)(=O)N=C(c1c(O)c3cccn3n(CCC(C)C)c1=O)N2,5.66
3,CC(C)CCn1c(=O)c(C2=NS(=O)(=O)c3cc(NS(C)(=O)=O)ccc3N2)c(O)c2cc(F)cn21,7.57
4,CN(c1ccc2c(c1)S(=O)(=O)N=C(c1c(O)c3cccn3n(CCC(C)(C)C)c1=O)N2)S(C)(=O)=O,7.22
5,CC(C)CCn1c(=O)c(C2=NS(=O)(=O)c3cc(NS(C)(=O)=O)ccc3N2)c(O)c2cc(C#N)cn21,6.49

# The remaining lines, values ahead:
row,pIC50,Structure (SMILES)
1,6.07,O=c1c(C2=NS(=O)(=O)c3ccccc3N2)c(O)c2cccn2n1Cc1ccc(F)cc1
2,6.89,O=c1c(C2=NS(=O)(=O)c3cc(C4CCCS4(=O)=O)ccc3N2)c(O)c2cccn2n1Cc1ccc(F)cc1 (racemic)

# Test system: not listed separately
# Test: Metabolic stability in human liver microsomes assessed as remains after 60 mins at 5 uM
# Type: ADME, Microsome
# Conditions: read-out: Stability
row,"remaining at 1 h, 5 µM [%]",Structure (SMILES)
1,102,CS(=O)(=O)Nc1ccc2c(c1)S(=O)(=O)N=C(c1c(O)c3cccn3n(Cc3ccc(F)c(Cl)c3)c1=O)N2
2,78,CC(C)CCn1c(=O)c(C2=NS(=O)(=O)c3cc(NS(C)(=O)=O)ccc3N2)c(O)c2cc(F)cn21
3,100,O=c1c(C2=NS(=O)(=O)c3cc(C4CCCS4(=O)=O)ccc3N2)c(O)c2cccn2n1Cc1ccc(F)cc1 (racemic)
